Source: patent US20260183302A1, “PDK1 REGULATORY COMPOUND AND COMPOSITION CONTAINING THE SAME” (PROVIBIO CO., LTD., priority 2024, published 2026)

Tests used:
[1] = system: HCT-116 colon cancer cell lines; assay: Matrigel Invasion Assay on HCT-116 colon cancer cell line; type: cell-based, human; conditions: HCT-116, Matrigel, 24 hours treatment, vs DMSO
Description: To evaluate the metastasis inhibitory efficacy of the compounds of the present invention on HCT-116 colon cancer cell lines, an Invasion Assay using Matrigel was performed to assess the cells' invasion ability.
First, Matrigel was thawed on ice in RPMI-1640 medium without FBS, then diluted with DMEM at a ratio of 1:20.
The diluted Matrigel mixture was applied to the upper chamber at 100 μl per well, and 750 μl of RPMI-1640 without FBS was added to the lower chamber.
The plates were then incubated at 37° C. for 1 hour to allow the Matrigel to solidify.
After coating, the Matrigel mixture in the upper chamber was removed using a pipette, and the chamber was washed with RPMI without FBS.
Human-derived colorectal cancer cell line HCT-116, obtained from the Korean Cell Bank, was cultured in RPMI-1640 medium containing 10% FBS.
Following stabilization, the cells were harvested using Trypsin-EDTA treatment, centrifuged at 1,200 rpm for 3 minutes, the supernatant was removed, and the cells were resuspended in the same medium, the medium in the lower chamber was replaced with 750 μl of RPMI-1640 supplemented with 10% FBS, and the cells were seeded into the upper chamber at a density of 5×10^4 cells/well.
The cells were cultured for 24 hours after attachment, and then the compounds according to the present invention (G078, G085, G086, G088, G089, PBK-2024-010, PBK-2025-010, PBK-2025-013, PBK-2025-016) and the control substance DMSO were diluted and added to the upper chamber after removing the medium.
Additionally, the medium in the lower chamber was replaced with fresh RPMI-1640 containing FBS, and the culture was continued.
After an additional 24 hours, the medium was removed, and 1 ml of methanol was added for 10 minutes to fix the cells.
Subsequently, 1 ml of Hematoxylin was added and reacted for 5 minutes, followed by 1 ml of Eosin, which was reacted for 30 seconds. The sample was then washed with distilled water (DW).
After staining was complete, any remaining cells in the upper chamber were removed. Finally, the infiltrated cells were observed under a microscope, photographed, and the degree of infiltration was analyzed.

[2] = system: T cells isolated from mouse spleens; assay: T cell proliferation inhibition (CFSE flow cytometry, anti-CD3/anti-CD28 stimulation); type: cell-based, C57BL/6 mice; conditions: three days
Description: To verify the T cell proliferation inhibitory effect of the compounds according to the present invention, the following experiment was performed based on flow cytometry analysis using carboxyfluorescein diacetate succinimidyl ester (CFSE), a fluorescent dye that binds to intracellular molecules via covalent bonds.
Spleens were extracted from 7-week-old C57BL/6 mice, ground, and then separated into single cells using a strainer (40 μm pore size, SPL). Red blood cells were removed using ACK (Ammonium-Chloride-Potassium) lysis buffer to isolate white blood cells.
Finally, using a MACS Magnetic Stand and LS column, T cells were isolated from the spleen.
The T cells isolated from the spleen were resuspended in 1 mL of free medium (RPMI-1640+200 U/mL penicillin+200 μg/mL streptomycin), and 0.3 μL of CFSE (10 mM) was added. The mixture was incubated at 37° C. for 5 minutes.
Free medium (10 mL) was added to stop the reaction, and the cells were centrifuged to obtain the cell pellet.
RPMI 1640 medium containing 10% FBS, 100 U/mL penicillin, 100 μg/mL streptomycin, and resuspended the cells. The cells were then seeded into a 96-well plate at a density of 2× 10^5 cells per well and activated with CD3 and CD28 antibodies (0.5 μg/mL each) to activate T cells.
The compound diluted in DMSO was added at concentrations of 10 nM, 100 nM, 1 μM, 10 μM, 30 μM, and 50 μM, with three wells per concentration, and cultured at 37° C. and 5% CO2 for three days. The cells were then analyzed using a FACS Canto instrument.
The proliferation inhibition rate (%) was calculated using the following formula: […]

[3] = system: Human B Lymphocyte cell line, SU-DHL-8; assay: Relative cell viability, SU-DHL-8 (CCK-8); type: cell-based; conditions: 48 hours, untreated (DMSO) = 100%
Description: Human-derived B lymphoma cell line SU-DHL-8 (Cat. #CRL-2961) purchased from ATCC was cultured in RPMI-1640 medium containing 10% FBS, 100 U/mL penicillin, and 100 μg/mL streptomycin.
The cell culture medium was then harvested, centrifuged at 1,300 rpm for 5 minutes, and the supernatant was removed. The cells were resuspended in the same medium and dispensed into a 96-well plate (Costar 96-well cell culture plate, Corning) at 90 μL per well, resulting in the conditions specified in Table 5.
Then, 10 μL of CCK-8 was added to each well, and the plates were incubated again at 37° C. in a 5% CO2 incubator for 4 hours.
In other words, when the survival rate of untreated cells (DMSO) is set at 100%, the relative cell survival rate in each group treated with the drug at different concentrations is indicated.

12-(4-hydroxypiperazin-1-yl)dodecyl-N-(6-aminopurazin-2-yl) carboxamide [Compound 10]
number of infiltrated cells (invasion) [1]: reduction in the number of infiltrated cells
Proliferation inhibition rate (%) ([2]; concentration 10 nM): 100.00%
Proliferation inhibition rate (%) ([2]; concentration 100 nM): 100.00%
Proliferation inhibition rate (%) ([2]; concentration 1 μM): 100.00%
Proliferation inhibition rate (%) ([2]; concentration 10 μM): 100.00%
Proliferation inhibition rate (%) ([2]; concentration 30 μM): 100.00%
Proliferation inhibition rate (%) ([2]; concentration 50 μM): 100.00%

Nc1ncccc1C(=O)NCCCCCCCCCCCCN1CCNCC1 [Compound 5, 2-Amino-N-(12-(piperazin-1-yl)dodecyl)-nicotinamide]
number of infiltrated cells (invasion) [1]: reduction in the number of infiltrated cells

O=C(NCCCCCCCCCCCCN1CCN2CCCC2C1)c1cccnc1 (stereo not shown) [Compound 23, N-(12-(hexahydropyrrolo[1,2-a]pyrazin-2 (1H)-yl)dodecyl) nicotinamide]
number of infiltrated cells (invasion) [1]: reduction in the number of infiltrated cells

CC(C)(C)OC(=O)N[C@H]1CCN(CCCCCCCCCCCCNC(=O)c2cccnc2N)C1 [Compound 49, tert-Butyl(S)-(1-(12-(2-aminonicotinamido)dodecyl)pyrrolidin-3-yl) carbamate]
number of infiltrated cells (invasion) [1]: reduction in the number of infiltrated cells
Relative cell viability (%) ([3]; SU-DHL-8, 1 μM): 8.93%
Relative cell viability (%) ([3]; SU-DHL-8, 10 μM): 8.02%
Relative cell viability (%) ([3]; SU-DHL-8, 30 μM): 7.48%
Relative cell viability (%) ([3]; SU-DHL-8, 50 μM): 4.09%
Proliferation inhibition rate (%) ([2]; concentration 100 nM): 100.00%
Proliferation inhibition rate (%) ([2]; concentration 1 μM): 100.00%
Proliferation inhibition rate (%) ([2]; concentration 10 μM): 100.00%
Proliferation inhibition rate (%) ([2]; concentration 30 μM): 100.00%
Proliferation inhibition rate (%) ([2]; concentration 50 μM): 100.00%

Cc1ccc(OC2CCN(CCCCCCCCCCCCNC(=O)c3cccnc3N)CC2)cc1 [Compound 51, 2-Amino-N-(12-(4-(p-tolyloxy)piperidin-1-yl)dodecyl) nicotinamide]
Relative cell viability (%) ([3]; SU-DHL-8, 1 μM): 3.48%
Relative cell viability (%) ([3]; SU-DHL-8, 10 μM): 1.98%
Relative cell viability (%) ([3]; SU-DHL-8, 30 μM): 0.89%
Relative cell viability (%) ([3]; SU-DHL-8, 50 μM): 0.48%
Proliferation inhibition rate (%) ([2]; concentration 10 nM): 0.77%
Proliferation inhibition rate (%) ([2]; concentration 1 μM): 100.00%
Proliferation inhibition rate (%) ([2]; concentration 10 μM): 100.00%
Proliferation inhibition rate (%) ([2]; concentration 30 μM): 100.00%
Proliferation inhibition rate (%) ([2]; concentration 50 μM): 100.00%

Nc1ncccc1C(=O)NCCCCCCCCCCCCN1CC(F)C1 [Compound 52, 2-Amino-N-(12-(3-fluoroazetidin-1-yl)dodecyl)nicotinamide]
number of infiltrated cells (invasion) [1]: reduction in the number of infiltrated cells

Nc1ncccc1C(=O)NCCCCCCCCCCCCN1CCN(CCO)CC1 [Compound 54, 2-Amino-N-(12-(4-(2-hydroxyethyl)piperazin-1-yl)dodecyl) nicotinamide]
Relative cell viability (%) ([3]; SU-DHL-8, 1 μM): 6.42%
Relative cell viability (%) ([3]; SU-DHL-8, 10 μM): 4.05%
Relative cell viability (%) ([3]; SU-DHL-8, 30 μM): 3.26%
Relative cell viability (%) ([3]; SU-DHL-8, 50 μM): 2.23%
Proliferation inhibition rate (%) ([2]; concentration 100 nM): 100.00%
Proliferation inhibition rate (%) ([2]; concentration 1 μM): 100.00%
Proliferation inhibition rate (%) ([2]; concentration 10 μM): 100.00%
Proliferation inhibition rate (%) ([2]; concentration 30 μM): 100.00%
Proliferation inhibition rate (%) ([2]; concentration 50 μM): 100.00%

Cc1ccc(C2CCN(CCCCCCCCCCCCNC(=O)c3cccnc3N)CC2)cc1 [Compound 55, 2-Amino-N-(12-(4-(p-tolyl)piperidin-1-yl)dodecyl) nicotinamide]
Relative cell viability (%) ([3]; SU-DHL-8, 1 μM): 9.36%
Relative cell viability (%) ([3]; SU-DHL-8, 10 μM): 4.92%
Relative cell viability (%) ([3]; SU-DHL-8, 30 μM): 1.10%
Relative cell viability (%) ([3]; SU-DHL-8, 50 μM): 0.97%
Proliferation inhibition rate (%) ([2]; concentration 100 nM): 100.00%
Proliferation inhibition rate (%) ([2]; concentration 1 μM): 100.00%
Proliferation inhibition rate (%) ([2]; concentration 10 μM): 100.00%
Proliferation inhibition rate (%) ([2]; concentration 30 μM): 100.00%
Proliferation inhibition rate (%) ([2]; concentration 50 μM): 100.00%

Cl.O=C(NCCCCCCCCCCCCN1CCNCC1)c1ccc(-c2ccccc2)o1 [Compound 90, 5-Phenyl-N-(12-(piperazin-1-yl)dodecyl) furan-2-carboxamide hydrochloride]
Relative cell viability (%) ([3]; SU-DHL-8, 1 μM): 7.19%
Relative cell viability (%) ([3]; SU-DHL-8, 10 μM): 5.94%
Relative cell viability (%) ([3]; SU-DHL-8, 30 μM): 2.48%
Relative cell viability (%) ([3]; SU-DHL-8, 50 μM): 1.94%
Proliferation inhibition rate (%) ([2]; concentration 10 μM): 100.00%
Proliferation inhibition rate (%) ([2]; concentration 30 μM): 100.00%
Proliferation inhibition rate (%) ([2]; concentration 50 μM): 100.00%

CN1CCN(CCCCCCCCCCCCNC(=O)c2cccnc2F)CC1 [Compound 121, 2-fluoro-N-(12-(4-methylpiperazin-1-yl)dodecyl) nicotinamide]
Relative cell viability (%) ([3]; SU-DHL-8, 1 μM): 34.89%
Relative cell viability (%) ([3]; SU-DHL-8, 10 μM): 28.99%
Relative cell viability (%) ([3]; SU-DHL-8, 30 μM): 29.04%
Relative cell viability (%) ([3]; SU-DHL-8, 50 μM): 31.11%
Proliferation inhibition rate (%) ([2]; concentration 10 nM): 0.00%
Proliferation inhibition rate (%) ([2]; concentration 100 nM): 0.00%
Proliferation inhibition rate (%) ([2]; concentration 1 μM): 0.00%
Proliferation inhibition rate (%) ([2]; concentration 10 μM): 30.00%
Proliferation inhibition rate (%) ([2]; concentration 30 μM): 100.00%
Proliferation inhibition rate (%) ([2]; concentration 50 μM): 100.00%

Nc1ncccc1C(=O)NCCCCCCCCCCCCN1CC(F)(F)C1 [Compound 122, 2-Amino-N-(12-(3,3-difluoroazetidin-1-yl)dodecyl) nicotinamide]
Relative cell viability (%) ([3]; SU-DHL-8, 1 μM): 31.84%
Relative cell viability (%) ([3]; SU-DHL-8, 10 μM): 31.91%
Relative cell viability (%) ([3]; SU-DHL-8, 30 μM): 32.93%
Relative cell viability (%) ([3]; SU-DHL-8, 50 μM): 35.70%
Proliferation inhibition rate (%) ([2]; concentration 10 nM): 0.00%
Proliferation inhibition rate (%) ([2]; concentration 100 nM): 0.00%
Proliferation inhibition rate (%) ([2]; concentration 1 μM): 80.00%
Proliferation inhibition rate (%) ([2]; concentration 10 μM): 100.00%
Proliferation inhibition rate (%) ([2]; concentration 30 μM): 100.00%
Proliferation inhibition rate (%) ([2]; concentration 50 μM): 100.00%

COC1CCN(CCCCCCCCCCCCNC(=O)c2cccnc2N)C1 (stereo not shown) [Compound 126, 2-amino-N-(12-(3-methoxypyrrolidin-1-yl)dodecyl) nicotinamide]
Relative cell viability (%) ([3]; SU-DHL-8, 1 μM, listed as K-PB-48, 1 µM): 33.03%
Relative cell viability (%) ([3]; SU-DHL-8, 10 μM, listed as K-PB-48, 10 µM): 31.98%
Relative cell viability (%) ([3]; SU-DHL-8, 30 μM, listed as K-PB-48, 30 µM): 32.32%
Relative cell viability (%) ([3]; SU-DHL-8, 50 μM, listed as K-PB-48, 50 µM): 30.44%
Proliferation inhibition rate (%) ([2]; concentration 10 nM, listed as K-PB-48, 0.01 µM): 0.00%
Proliferation inhibition rate (%) ([2]; concentration 100 nM): 100.00%
Proliferation inhibition rate (%) ([2]; concentration 1 μM): 100.00%
Proliferation inhibition rate (%) ([2]; concentration 10 μM): 100.00%
Proliferation inhibition rate (%) ([2]; concentration 30 μM): 100.00%
Proliferation inhibition rate (%) ([2]; concentration 50 μM): 100.00%

Nc1ncccc1C(=O)NCCCCCCCCCCCCN1CC=CC1 [Compound 129, 2-amino-N-(12-(2,5-dihydro-1H-pyrrol-1-yl)dodecyl) nicotinamide]
Relative cell viability (%) ([3]; SU-DHL-8, 1 μM): 34.26%
Relative cell viability (%) ([3]; SU-DHL-8, 10 μM): 33.99%
Relative cell viability (%) ([3]; SU-DHL-8, 30 μM): 35.05%
Relative cell viability (%) ([3]; SU-DHL-8, 50 μM): 34.27%
Proliferation inhibition rate (%) ([2]; concentration 10 nM): 0.00%
Proliferation inhibition rate (%) ([2]; concentration 100 nM): 90.00%
Proliferation inhibition rate (%) ([2]; concentration 1 μM): 100.00%
Proliferation inhibition rate (%) ([2]; concentration 10 μM): 100.00%
Proliferation inhibition rate (%) ([2]; concentration 30 μM): 100.00%
Proliferation inhibition rate (%) ([2]; concentration 50 μM): 100.00%
